{"source": "patent US20120165403A1", "about": "“METHODS OF INHIBITING THE ACTIVITY OF HSP90 AND/OR ARYL HYDROCARBON RECEPTOR” (UNIVERSITY OF ROCHESTER, priority 2004, published 2012)", "key": {"[1]": {"system": "TCDD-mediated CYP1A1 gene induction", "assay": "CYP1A1 expression by Western blot in Hepa1c1c7 cells", "type": "cell-based, mouse", "protocol": "Mouse hepatoma cells, Hepa1c1c7 (Hepa), and BP^rCl cells were maintained in modified Eagle's medium (Sigma) supplemented with 10% heat-inactivated fetal bovine serum, sodium pyruvate, L-glutamine, sodium bicarbonate, and Gentamicin (MEM+), at 37° C. in a humid atmosphere with 5% CO2. BP^rCl cells are a derivative of Hepa1c1c7 cells that lack ARNT protein expression and function (Probst et al., Mol. Pharmacol. 44:511-518 (1993), which is hereby incorporated by reference in its entirety). Upon reaching 90% confluency, cells were harvested and homogenized in HEDG buffer (25 mM HEPES, 1.5 mM Na2EDTA, 1 mM dithiothreitol, 10% (v/v) glycerol, pH 7.6) containing protease inhibitors (Roche Applied Science complete mini cocktail tablet, Indianapolis, Ind.). Both Hepa and BP^rC1 cytosols were prepared by centrifugation of the homogenate at 100,000 g for 45 min.\nHepa cells were plated onto 6-well plates at a density of 5×10^5 cells/well and incubated overnight at 37° C. Cells were treated with vehicle (DMSO), TCDD (150 pM), EGCG, or EGCG in the presence of TCDD (150 pM) for 4 hrs. Cells were lysed (0.2% Triton, 5 mM EDTA in PBS) and total protein quantified using the Coomassie Plus Protein Assay Reagent (Pierce, Rockford, Ill.). Protein (30 μg) was separated by SDS-PAGE (7.5% acrylamide resolving gel) and transferred to PVDF membrane (Millipore, Bedford, Mass.). […]"}, "[2]": {"system": "hsp90", "assay": "Sucrose density gradient sedimentation of hsp90 in Hepa cytosol", "type": "biochemical, mouse", "settings": "2 h, 200 μM EGCG or 10 nM TCDD", "protocol": "Competitive binding of EGCG was analyzed by velocity sedimentation on sucrose gradients in a vertical tube rotor (Tsui et al., Can. J. Physiol. Pharmacol 59:927-931 (1981); Jensen et al., Toxicol. Sci. 64:41-56 (2001), which are hereby incorporated by reference in their entirety). Hepa cytosol (100 μl of 2.5 mg/ml) or BP^rCl cytosol was incubated for two hours at room temperature with either 3 nM ^3H-TCDD, 0.5 nM ^3H-TCDD, or 5 nM ^3H-BNF, in the presence of DMSO, 150-fold excess TCDF, 1 μM 3M4NF, or EGCG. […] For competitive binding assays, fractions were assayed for radioactivity with ScintiVerse (Fisher Scientific, Fair Lawn, N.J.). […] For AhR and hsp90 density analysis, protein contained within an aliquot (200 of each fraction was separated by SDS-PAGE (7.5% acrylamide resolving gel) and transferred to PVDF membranes. Membranes were probed with antibodies recognizing AhR (Biomol) or hsp90 (Stressgen, Victoria, BC Canada). A crude estimate of the sedimentation coefficient for the EGCG shifted AhR complex was calculated by the method of Martin and Ames (Martin et al., J. Biol. Chem. 236:1372-1379 (1961), which is hereby incorporated by reference in its entirety) relative to the ^14C-BSA (4.4S) standard."}}}
{"smiles": "O=C(O[C@@H]1Cc2c(O)cc(O)cc2O[C@@H]1c1cc(O)c(O)c(O)c1)c1cc(O)c(O)c(O)c1", "note": "[EGCG, epigallocatechin gallate]", "values": [{"measurement": "CYP1A1 gene induction, treatment alone", "setting": "[1]; EGCG alone, Western blot", "result": "no effect on CYP1A1 gene induction"}, {"measurement": "inhibition of TCDD-mediated CYP1A1 gene induction", "setting": "[1]; simultaneously with 150 pM TCDD", "result": "concentration-dependent inhibition"}, {"measurement": "effect on the sedimentation pattern of hsp90", "setting": "[2]", "result": "dramatically altered the sedimentation pattern of hsp90"}]}
